The values that follow come from patent US6903132B2, “Non-peptide GnRH agents, pharmaceutical compositions and methods for their use” (Agouron Pharmaceuticals, Inc., priority 2002, dated 2005).

The assay has as its target T1, human GnRH receptors (Homo sapiens, UniProt P30968).
T1 construct: expressed in transfected cells; host or cells: HEK 293
T1 sequence (P30968 1-328): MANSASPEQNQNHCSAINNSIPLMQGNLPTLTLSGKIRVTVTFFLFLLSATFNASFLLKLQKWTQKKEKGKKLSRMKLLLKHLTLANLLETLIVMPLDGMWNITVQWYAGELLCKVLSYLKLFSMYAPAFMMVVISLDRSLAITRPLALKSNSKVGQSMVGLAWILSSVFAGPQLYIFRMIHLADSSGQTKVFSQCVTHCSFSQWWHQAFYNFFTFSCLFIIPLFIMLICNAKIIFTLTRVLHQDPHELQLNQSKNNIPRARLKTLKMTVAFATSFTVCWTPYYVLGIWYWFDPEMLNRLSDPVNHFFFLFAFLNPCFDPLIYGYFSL
Kind of assay: Radioligand binding assay: inhibition of binding of 125I-GnRH-A to GnRH receptors (membranes). Particulars: Human GnRH receptor; competition with 125I-GnRH-A; Ki calculated from IC50 (Cheng et al.). As for the experimental part:
HEK 293 cells stably transfected with mouse or human GnRH receptors as described above are grown in Dulbecco's high-glucose, modified Eagle's medium (DMEM) supplemented with 0.2% G418, 10% fetal bovine serum (FBS) and 100U/mL penicillin/streptomycin. GH3 cells stably transfected with the rat GnRH receptor (GGH3) were provided by Dr. William Chin (Harvard Medical School, Boston, Mass.). These cells are extensively characterized previously (Kaiser et al., 1997). The cells are grown in low glucose DMEM containing: 100U/mL penicillin/streptomycin, 0.6% G418 and 10% heat-inactivated FBS.
HEK 293 cells containing mouse or human receptors, or rat pituitaries (Pel Freez Biologicals, Rogers, Ark.) are homogenized in buffer A containing: 50 mM Tris (pH 7.4), 0.32 M sucrose, 2 mM EGTA, 1 mM PMSF, 5 μg/ml aprotinen, 5 μg/ml Pepstatin A, and 1 μg/ml leupeptin. Homogenized cells are centrifuged at 4° C. at 20,000×g for 25 minutes, re-suspended in buffer A and re-centrifuged at 4° C. at 20,000×g for an additional 25 minutes. Total membrane protein was determined with a BCA kit (Pierce, Rockford, Ill.). Membranes are stored at −70° C. at a final membrane protein concentration of approximately 5 mg/ml.
The radioiodinated agonist analog of GnRH, [des-Gly^10, D-Ala^6]GnRH ethylamide (^125I-GnRH-A), is used as the radioligand. One μg of GnRH-A diluted in 0.5 M phosphate buffer (pH 7.4) is added to an lodogen®-coated borosilicate glass tube (Pierce, Rockford, Ill.) containing 35 μl of 0.05 M phosphate buffer (pH 7.4-7.6) and 1 mCi of Na[^125I]. The reaction mixture is vortexed and incubated for 1 minute at room temperature. After one minute, the mixture is vortexed and allowed to incubate for an additional minute. 2 ml of 0.5 M acetic acid/1% BSA is added to the reaction tube and the mixture is added to a C18 Sep-Pak cartridge. The cartridge is washed with subsequent washes of 5 ml H2O and 5 ml 0.5 M acetic acid and then eluted with 5×1 ml of 60%CH3CN/40% 0.5 M acetic acid. The eluate is diluted with 3× volume of HPLC buffer A (0.1% TFA in H2O) and loaded onto a C18 column. The iodinated product is eluted over 20-25 min with a gradient of 25-100% CH3CN containing 0.1% TFA. The radioactive fractions (750 μl/fraction) are collected into clean polypropylene tubes containing 100 μl of 10% BSA. Fractions are assessed for biological activity by radiolig and binding. Specific activity of the radioligand was approximately 2200 Ci/mmol.
Membranes are diluted to 0.01-0.5 mg/ml (depending upon the species of receptor) with assay buffer containing 50 mM HEPES (pH 7.4), 1 mM EDTA, 2.5 mM MgCl2, and 0.1% BSA. Membranes (diluted to utilize similar receptor numbers between assays) are incubated with approximately 0.04-0.06 nM ^125I-GnRH-A in the presence or absence of competing agents (0.1-10,000 nM) in a total volume of 200 μl in 96-well polypropylene plates for 1 hour at room temperature. Assays are stopped by rapid filtration onto 96-well GF/C filters soaked in 0.1% polyethylenimine (PEI) utilizing a Packard 96-well cell harvester. Filters are washed three times with ice-cold PBS (50 mM NaPO4, 0.9% NaCl, 2 mM MgCl2, and 0.02% NaN3, pH 7.4). 35 μl of scintillation cocktail is added to each filter well and filters are counted on a Packard Topcount. Control dose-response curves are generated to GnRH (0.1 nM-100 nM) in each competition binding experiment. Ki values were calculated from IC50 values according to Cheng et al., Biochemical Pharmacol. 22: 3099-3108, 1973. [formula]
In the case of `CC(=O)N(C)c1ccc(C)c(Oc2ccc(C(=O)NNc3cc(C)c4c(C)nn(C)c4n3)o2)c1` [Example I30, N-Methyl-N-(4-methyl-3-{5-[N′-(1,3,4-trimethyl-1H-pyrazolo[3,4-b]pyridin-6-yl)-hydrazinocarbonyl]-furan-2-yloxy}-phenyl)-acetamide], the Ki was 630 nM.
To `COc1c(Cl)c(C)c(Cl)c(C)c1Cc1ccc(C(=O)NNc2cc(C)c3c(C)nn(C)c3n2)o1` [Example J30, 5-(3,5-Dichloro-2-methoxy-4,6-dimethyl-benzyl)-furan-2-carboxylic acid N′-(1,3,4-trimethyl-1H-pyrazolo[3,4-b]pyridin-6-yl)-hydrazide] belongs 480 nM; to `COc1cc(OC)c(CNNC(=O)c2ccc(Cc3cc4c(cc3C)C(C)(C)CCC4(C)C)o2)c(OC)c1` [Example A1, 5-[(3,5,5,8,8-Pentamethyl-5,6,7,8-tetrahydro-2-naphthalenyl)methyl]-N′-(2,4,6-trimethoxybenzyl)-2-furohydrazide], 1840 nM.
As for `Cc1cc2c(cc1Oc1ccc(C(=O)NNc3ncc(C(F)(F)F)cc3Cl)o1)C(C)(C)OC2` [Example N1, 5-(3,3,6-Trimethyl-1,3-dihydro-isobenzofuran-5-yloxy)-furan-2-carboxylic acid N′-(chloro-trifluoromethyl-pyridin-2-yl)-hydrazide], the Ki is 1140 nM.
Next, `Cc1cc2c(cc1Oc1ccc(C(=O)NNc3ccc(S(N)(=O)=O)cc3)o1)C(C)(C)CC2` [Example I14, 4-(2-{5-[(3,3,6-Trimethyl-2,3-dihydro-1H-inden-5-yl)oxy]-2-furoyl}hydrazino)benzenesulfonamide]: 225 nM; `COc1cc(Cc2ccc(C(=O)NNc3cc(C)c4c(C)nn(C)c4n3)o2)c(OC)c(OC)c1` [Example J8, 5-(2,3,5-trimethoxybenzyl)-N′-(1,3,4-trimethyl-1H-pyrazolo[3,4-b]pyridin-6-yl)-2-furohydrazide]: 3890 nM; `Cc1ccccc1Oc1ccc(C(=O)NNc2cc(C)c3c(C)nn(C)c3n2)o1` [Example I4, 5-(2-Methylphenoxy)-N′-(1,3,4-trimethyl-1H-pyrazolo[3 ,4-b]pyridin-6-yl)-2-furohydrazide]: 980 nM.
Regarding `Cc1cccc(C)c1SCc1ccc(C(=O)NNc2cc(C)c3c(C)nn(C)c3n2)o1` [Example J25, 5-{[(2,6-dimethylphenyl)sulfanyl]methyl}-N′-(1,3,4-trimethyl-1H-pyrazolo[3,4-b]pyridin-6-yl)-2-furohydrazide], the Ki was 1670 nM.
Consider `COc1cc2c(cc1Cc1ccc(C(=O)NNc3nccc(NCC4CCCO4)n3)o1)C(C)(C)CCC2(C)C` (stereo not drawn) [Example C7], for which the Ki was 1740 nM.
For the molecule `COc1cc(OC)c(Cc2ccc(C(=O)NNc3cc(C)c4c(C)nn(C)c4n3)o2)c(OC)c1` [Example J10, 5-(2,4,6-trimethoxybenzyl)-N-(1,3,4-trimethyl-1H-pyrazolo[3,4-b]pyridin-6-yl)-2-furohydrazide], the Ki is 1690 nM.
With `CC(=O)N1CCC(C)(C)c2cc(Oc3ccc(C(=O)NNc4cc(C)c5c(C)nn(C)c5n4)o3)c(Cl)cc21` [Example I1, 5-(1-Acetyl-7-chloro-4,4-dimethyl-1,2,3,4-tetrahydro-quinolin-6-yloxy)-furan-2-carboxylic acid N′-(1,3,4-trimethyl-1H-pyrazolo[3,4-b]pyridin-6-yl)-hydrazide], the Ki was 630 nM.
With `Cc1cc2c(cc1Oc1ccc(C(=O)NNc3nc(N)nc(C4CC4)n3)o1)C(C)(C)CC2` [Example I13, N′-(4-Amino-6-cyclopropyl-1,3,5-triazin-2-yl)-5-[(3,3,6-trimethyl-2,3-dihydro-1H-inden-5-yl)oxy]-2-furohydrazide], the inhibition constant Ki is 40 nM.
`CCN(CC)C(=O)C1(c2ccc(C)c(Cc3ccc(C(=O)NNc4cc(C)c5c(C)nn(C)c5n4)o3)c2)CC1` [Example J20, N,N-diethyl-1-{4-methyl-3-[(5-{[2-(1,3,4-trimethyl-1H-pyrazolo[3,4-b]pyridin-6-yl)hydrazino]carbonyl}-2-furyl)methyl]phenyl} cyclopropanecarboxamide]: the Ki is 1410 nM.
For `Cc1cc2c(cc1Cc1ccc(C(=O)NNc3c(Cl)cncc3Cl)o1)C(C)(C)CCC2(C)C` [Example C8, N′-(3,5-dichloro-4-pyridinyl)-5-[(3,5,5,8,8-pentamethyl-5,6,7,8-tetrahydro-2-naphthalenyl)methyl]-2-furohydrazide], the Ki was 410 nM.
In the case of `COc1ccc(OC)c(OC)c1Cc1ccc(C(=O)NNc2cc(C)c3c(C)nn(C)c3n2)o1` [Example J9, 5-(2,3,6-trimethoxybenzyl)-N′-(1,3,4-trimethyl-1H-pyrazolo[3,4-beta]pyridin-6-yl)-2-furohydrazide], the Ki was 4770 nM.
With `Cc1nc2ccccc2c(Cl)c1Cc1ccc(C(=O)NNc2cc(C)c3c(C)nn(C)c3n2)o1` [Example K1, 5-(4-Chloro-2-methyl-quinolin-3-ylmethyl)-furan-2-carboxylic acid N′-(1,3,4-trimethyl-1H-pyrazolo[3,4-b]pyridin-6-yl)-hydrazide], the Ki was 4430 nM.
As to `CCC(C)(C)c1ccc(OC)c(Cc2ccc(C(=O)NNc3cc(C)c4c(C)nn(C)c4n3)o2)c1` [Example J13, 5-[2-Methoxy-5-(tert-pentyl)benzyl]-N′-(1,3,4-trimethyl-1H-pyrazolo[3,4-b]pyridin-6-yl)-2-furohydrazide], the Ki is greater than 10000 nM.
To `Cc1cc2c(cc1Cc1ccc(C(=O)NNc3ccccn3)o1)C(C)(C)CCC2(C)C` [Example C10, 5-[(3,5,5,8,8-Pentamethyl-5,6,7,8-tetrahydro-2-napthalenyl)methyl]-N′-(2-pyridinyl)-2-furohydrazide] belongs 350 nM; to `Cc1c(C)c(Cc2ccc(C(=O)NNc3cc(C)c4c(C)nn(C)c4n3)o2)c(C)c(Cc2ccc(C(=O)NNc3cc(C)c4c(C)nn(C)c4n3)o2)c1C` [Example J29, 3-(2,3,4,6-Tetramethyl-5-{5-[N′-(1,3,4-trimethyl-1H-pyrazolo[3,4-b]pyridin-6-yl)-hydrazinocarbonyl]-furan-2-ylmethyl}-benzyl)-furan-1-carboxylic acid N′-(1,3,4-trimethyl-1H-pyrazolo[3,4-b]pyridin-6-yl)-hydrazide], 5230 nM.
`Cc1c(C)c(C)c(Cc2ccc(C(=O)NNc3cc(C)c4c(C)nn(C)c4n3)o2)c(C)c1C` [Example J5, 5-(2,3,4,5,6-Pentamethylbenzyl)-N′-(1,3,4-trimethyl-1H-pyrazolo[3,4-b]pyridin-6-yl)-2-furohydrazide]: the Ki is 1400 nM.
`Cc1cc(NNC(=O)c2ccc(Cc3cc4c(cc3C(C)C)C(C)(C)CCC4(C)C)o2)nc2c1c(C)nn2C` [Example C3, 5-[(3-lsopropyl-5,5,8,8-tetramethyl-5,6,7,8-tetrahydro-2-naphthalenyl)methyl]-N′-(1,3,4-trimethyl-1H-pyrazolo[3,4-b]pyridin-6-yl)-2-furohydrazide]: the Ki was 300 nM.
